# Active and inactive are the calls of the source.
# Key:
# Vero = Vero cell cytotoxicity, cytotoxicity control for flavivirus capping enzyme inhibitors (AID 588742); assay type: functional; settings: Chlorocebus sabaeus
# [1] = CRF-BP/CRF-R2 complex antagonists, dose response, cell-based, uHTS hits, 384-well (AID 651639); assay type: functional, Homo sapiens; settings: read-out: IC50_Mean
# [2] = biological target: T1, Corticotropin-releasing factor receptor 2/Corticotropin-releasing factor-binding protein (Homo sapiens, UniProt P24387+Q13324); assay: activators of CRF receptor 2 with binding protein – uHTS hits, confirmation (AID 602473); assay type: functional; settings: read-out: EC50_Mean
# T1 sequence (Q13324 whole entry): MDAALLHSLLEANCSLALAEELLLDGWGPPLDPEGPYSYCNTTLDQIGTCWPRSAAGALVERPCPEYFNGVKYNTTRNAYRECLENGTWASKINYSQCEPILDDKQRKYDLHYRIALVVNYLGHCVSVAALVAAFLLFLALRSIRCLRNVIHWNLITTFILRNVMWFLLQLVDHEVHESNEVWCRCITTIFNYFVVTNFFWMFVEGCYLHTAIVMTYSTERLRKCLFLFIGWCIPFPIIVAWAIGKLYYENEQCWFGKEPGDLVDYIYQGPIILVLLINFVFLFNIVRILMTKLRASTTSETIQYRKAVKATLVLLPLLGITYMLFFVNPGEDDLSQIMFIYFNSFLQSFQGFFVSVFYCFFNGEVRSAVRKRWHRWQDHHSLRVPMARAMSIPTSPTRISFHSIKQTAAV
# T1 sequence (P24387 whole entry): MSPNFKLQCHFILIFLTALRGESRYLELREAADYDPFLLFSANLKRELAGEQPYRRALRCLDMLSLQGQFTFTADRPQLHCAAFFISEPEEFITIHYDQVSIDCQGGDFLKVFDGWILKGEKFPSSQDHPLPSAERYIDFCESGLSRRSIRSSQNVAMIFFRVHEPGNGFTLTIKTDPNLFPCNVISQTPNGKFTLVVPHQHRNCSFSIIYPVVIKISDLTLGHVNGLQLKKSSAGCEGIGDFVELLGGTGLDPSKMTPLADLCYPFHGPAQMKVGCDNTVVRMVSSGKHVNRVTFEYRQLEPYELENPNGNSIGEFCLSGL
# [3] = biological target: T1, Corticotropin-releasing factor receptor 2/Corticotropin-releasing factor-binding protein; assay: Dose Response confirmation of uHTS hits for small molecule antagonists of the CRF-binding protein and CRF-R2 receptor complex.; assay type: functional; settings: read-out: IC50_Mean
# [4] = Luminescence Cell-Based Dose Confirmation HTS to Identify Inhibitors of Polyadenylation.; assay type: functional
# Genome polyprotein = Genome polyprotein (dengue virus type 2, UniProt P29990); assay: Dengue-2 NS5 methyltransferase inhibitors, primary screen, biochemical, confirmation dose response (AID 588689); assay type: functional
# CHO-K1 = assay: (§1) Counterscreen for antagonists of the orexin 1 receptor (OX1R; HCRTR1): Homogeneous time resolved fluorescence (HTRF)-based cell-based dose response assay to identify antagonists of the parental CHO-K1 cell line. [Related pubchem assays (depositor defined):AID434989, AID435008, AID463079, AID485270, AID492963, AID492964, AID492965, AID493232, AID504699, AID504701]; assay type: functional; settings: Cricetulus griseus
# [5] = biological target: T2, Orexin/Hypocretin receptor type 1 (Homo sapiens, UniProt O43613); assay: Homogeneous Time Resolved Fluorescence (HTRF)-based cell-based high throughput dose response assay for antagonists of the orexin 1 receptor (OX1R; HCRTR1). [Related pubchem assays (depositor defined):AID434989, AID435008, AID463079, AID485270, AID492963, AID492964, AID492965, AID493232, AID504717, AID504718]; assay type: functional
# T2 sequence (O43613 whole entry): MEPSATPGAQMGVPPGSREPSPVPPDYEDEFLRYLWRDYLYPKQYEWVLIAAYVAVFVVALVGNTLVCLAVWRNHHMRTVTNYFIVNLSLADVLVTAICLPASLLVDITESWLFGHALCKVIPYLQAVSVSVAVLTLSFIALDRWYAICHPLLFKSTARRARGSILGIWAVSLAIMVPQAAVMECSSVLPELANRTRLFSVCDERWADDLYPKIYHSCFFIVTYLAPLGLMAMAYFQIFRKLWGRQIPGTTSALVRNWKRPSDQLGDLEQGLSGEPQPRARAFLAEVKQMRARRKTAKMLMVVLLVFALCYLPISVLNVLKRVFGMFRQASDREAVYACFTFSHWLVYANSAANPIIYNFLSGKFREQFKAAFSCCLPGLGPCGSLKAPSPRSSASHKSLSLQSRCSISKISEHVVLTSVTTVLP
# [6] = as §1, with “Fluorescence-based” for “Homogeneous time resolved fluorescence (HTRF)-based”, “cell-based high throughput” for “cell-based”, “CHO” for “CHO-K1”; assay type: functional
# Orexin receptor type 2 [7] = biological target: T3, Orexin receptor type 2 (Homo sapiens, UniProt O43614); assay: Counterscreen assay for antagonists of the orexin 1 receptor (OX1R; HCRTR1): Fluorescence-based cell-based dose response assay for antagonists of the orexin 2 receptor (OX2R; HCRTR2), run by assay provider.; assay type: functional
# T3 sequence (O43614 whole entry): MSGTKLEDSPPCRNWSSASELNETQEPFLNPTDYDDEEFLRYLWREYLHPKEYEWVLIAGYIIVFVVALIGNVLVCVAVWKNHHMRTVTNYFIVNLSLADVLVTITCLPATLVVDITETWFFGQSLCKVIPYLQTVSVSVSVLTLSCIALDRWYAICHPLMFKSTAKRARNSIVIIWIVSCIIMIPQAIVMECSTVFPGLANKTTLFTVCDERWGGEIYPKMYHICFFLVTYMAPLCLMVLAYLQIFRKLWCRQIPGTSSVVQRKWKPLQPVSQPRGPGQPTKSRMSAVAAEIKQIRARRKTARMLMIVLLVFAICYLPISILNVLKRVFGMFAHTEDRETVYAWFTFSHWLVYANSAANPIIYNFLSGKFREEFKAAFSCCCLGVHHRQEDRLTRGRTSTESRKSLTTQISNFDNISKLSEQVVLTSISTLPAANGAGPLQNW
# Orexin receptor type 2 [8] = biological target: T3, Orexin receptor type 2; assay: Counterscreen assay for antagonists of the orexin 1 receptor (OX1R; HCRTR1): Homogeneous Time Resolved Fluorescence (HTRF)-based cell-based dose response assay for antagonists of the orexin 2 receptor (OX2R; HCRTR2), run by assay provider.; assay type: functional
# [9] = biological target: T2, Orexin/Hypocretin receptor type 1; assay: Fluorescence-based cell-based high throughput dose response assay for antagonists of the orexin 1 receptor (OX1R; HCRTR1). [Related pubchem assays (depositor defined):AID434989, AID435008, AID463079, AID485270, AID492963, AID492964, AID492965, AID493232, AID504717, AID504718]; assay type: functional
# [10] = biological target: Cell division cycle 7-related protein kinase (Homo sapiens, UniProt O00311); assay type: functional;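 further: value obtained from a kinome-wide kinase panel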
# Wee1-like protein kinase = Wee1-like protein kinase (Homo sapiens, UniProt P30291); assay: Navigating the Kinome. Panel member name: WEE1; assay type: functional
# Sequence of Wee1-like protein kinase (P30291 whole entry): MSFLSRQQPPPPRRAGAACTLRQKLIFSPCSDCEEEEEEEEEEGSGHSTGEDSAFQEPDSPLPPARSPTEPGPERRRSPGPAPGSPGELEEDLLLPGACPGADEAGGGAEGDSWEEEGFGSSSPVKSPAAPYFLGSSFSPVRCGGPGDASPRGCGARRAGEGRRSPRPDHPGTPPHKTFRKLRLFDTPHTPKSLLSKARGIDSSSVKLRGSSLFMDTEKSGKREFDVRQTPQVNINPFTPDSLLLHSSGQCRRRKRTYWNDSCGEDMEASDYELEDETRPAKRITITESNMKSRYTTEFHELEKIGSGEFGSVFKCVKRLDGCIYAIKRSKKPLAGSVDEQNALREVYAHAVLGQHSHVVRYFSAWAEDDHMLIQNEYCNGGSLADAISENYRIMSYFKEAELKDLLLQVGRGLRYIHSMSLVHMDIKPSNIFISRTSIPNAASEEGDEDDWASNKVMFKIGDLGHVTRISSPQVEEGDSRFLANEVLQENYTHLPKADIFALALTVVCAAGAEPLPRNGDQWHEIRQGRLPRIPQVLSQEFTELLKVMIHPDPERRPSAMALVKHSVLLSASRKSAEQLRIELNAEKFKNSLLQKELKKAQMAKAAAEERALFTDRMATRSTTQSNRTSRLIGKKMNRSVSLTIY
# Aurora kinase A = Aurora kinase A (Homo sapiens, UniProt O14965); assay type: functional;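 further: value from the Navigating the Kinome kinase panel profiling, panel entry STK6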
# Sequence of Aurora kinase A (O14965 whole entry): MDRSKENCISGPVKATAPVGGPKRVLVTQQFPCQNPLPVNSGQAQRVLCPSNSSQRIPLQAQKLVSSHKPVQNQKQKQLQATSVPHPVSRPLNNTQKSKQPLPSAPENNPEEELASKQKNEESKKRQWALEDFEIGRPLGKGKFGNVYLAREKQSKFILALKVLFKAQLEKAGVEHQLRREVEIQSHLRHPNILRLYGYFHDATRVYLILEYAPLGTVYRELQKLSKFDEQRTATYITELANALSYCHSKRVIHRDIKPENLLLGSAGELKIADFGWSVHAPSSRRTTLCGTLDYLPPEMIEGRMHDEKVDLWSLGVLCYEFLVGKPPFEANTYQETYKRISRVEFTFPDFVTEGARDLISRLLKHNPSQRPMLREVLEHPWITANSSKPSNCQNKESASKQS
# [11] = biological target: Vascular endothelial growth factor receptor 2 (Homo sapiens, UniProt P35968); assay type: functional
# Sequence of Vascular endothelial growth factor receptor 2 (P35968 whole entry): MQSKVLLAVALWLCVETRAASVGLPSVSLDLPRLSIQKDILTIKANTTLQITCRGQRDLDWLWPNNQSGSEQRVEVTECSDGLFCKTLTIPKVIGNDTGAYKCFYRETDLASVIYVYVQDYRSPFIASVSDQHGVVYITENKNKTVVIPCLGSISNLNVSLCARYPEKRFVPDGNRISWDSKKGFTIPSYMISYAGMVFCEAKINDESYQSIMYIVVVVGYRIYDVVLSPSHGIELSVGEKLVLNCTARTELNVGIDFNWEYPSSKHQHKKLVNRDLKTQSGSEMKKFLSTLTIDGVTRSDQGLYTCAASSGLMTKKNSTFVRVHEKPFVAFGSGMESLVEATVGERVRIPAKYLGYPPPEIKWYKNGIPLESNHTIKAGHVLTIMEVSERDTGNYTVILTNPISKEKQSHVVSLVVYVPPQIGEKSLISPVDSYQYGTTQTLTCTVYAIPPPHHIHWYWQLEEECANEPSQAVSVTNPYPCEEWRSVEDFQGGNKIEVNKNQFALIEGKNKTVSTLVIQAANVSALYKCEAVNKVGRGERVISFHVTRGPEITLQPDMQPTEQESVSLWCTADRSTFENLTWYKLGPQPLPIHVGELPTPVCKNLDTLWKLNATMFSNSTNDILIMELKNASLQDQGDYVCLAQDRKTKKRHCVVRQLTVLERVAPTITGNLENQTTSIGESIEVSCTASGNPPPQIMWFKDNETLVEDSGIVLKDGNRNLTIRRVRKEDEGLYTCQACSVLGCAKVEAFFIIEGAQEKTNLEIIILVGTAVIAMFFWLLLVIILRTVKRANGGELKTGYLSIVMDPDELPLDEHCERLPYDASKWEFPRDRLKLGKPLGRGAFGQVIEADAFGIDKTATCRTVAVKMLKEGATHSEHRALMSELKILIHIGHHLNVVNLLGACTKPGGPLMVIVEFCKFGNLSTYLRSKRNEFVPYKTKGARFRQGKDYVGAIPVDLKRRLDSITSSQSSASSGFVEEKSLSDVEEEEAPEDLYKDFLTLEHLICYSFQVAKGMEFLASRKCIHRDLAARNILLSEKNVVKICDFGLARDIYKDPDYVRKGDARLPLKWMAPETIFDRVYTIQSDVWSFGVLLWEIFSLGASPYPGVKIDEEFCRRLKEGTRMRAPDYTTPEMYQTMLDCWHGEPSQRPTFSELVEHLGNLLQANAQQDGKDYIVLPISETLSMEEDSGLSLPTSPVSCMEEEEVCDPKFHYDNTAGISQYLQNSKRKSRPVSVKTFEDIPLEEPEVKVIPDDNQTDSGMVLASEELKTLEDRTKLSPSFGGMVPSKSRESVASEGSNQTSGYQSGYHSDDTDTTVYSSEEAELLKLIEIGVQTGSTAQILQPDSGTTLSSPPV
# Aurora kinase B = Aurora kinase B (Homo sapiens, UniProt Q96GD4); assay type: functional
# [12] = biological target: Vascular endothelial growth factor receptor 1 (Homo sapiens, UniProt P17948); assay type: functional;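 further: measured within a kinome-wide profiling panel, FLT1 as the panel member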
# Sequence of Vascular endothelial growth factor receptor 1 (P17948 whole entry): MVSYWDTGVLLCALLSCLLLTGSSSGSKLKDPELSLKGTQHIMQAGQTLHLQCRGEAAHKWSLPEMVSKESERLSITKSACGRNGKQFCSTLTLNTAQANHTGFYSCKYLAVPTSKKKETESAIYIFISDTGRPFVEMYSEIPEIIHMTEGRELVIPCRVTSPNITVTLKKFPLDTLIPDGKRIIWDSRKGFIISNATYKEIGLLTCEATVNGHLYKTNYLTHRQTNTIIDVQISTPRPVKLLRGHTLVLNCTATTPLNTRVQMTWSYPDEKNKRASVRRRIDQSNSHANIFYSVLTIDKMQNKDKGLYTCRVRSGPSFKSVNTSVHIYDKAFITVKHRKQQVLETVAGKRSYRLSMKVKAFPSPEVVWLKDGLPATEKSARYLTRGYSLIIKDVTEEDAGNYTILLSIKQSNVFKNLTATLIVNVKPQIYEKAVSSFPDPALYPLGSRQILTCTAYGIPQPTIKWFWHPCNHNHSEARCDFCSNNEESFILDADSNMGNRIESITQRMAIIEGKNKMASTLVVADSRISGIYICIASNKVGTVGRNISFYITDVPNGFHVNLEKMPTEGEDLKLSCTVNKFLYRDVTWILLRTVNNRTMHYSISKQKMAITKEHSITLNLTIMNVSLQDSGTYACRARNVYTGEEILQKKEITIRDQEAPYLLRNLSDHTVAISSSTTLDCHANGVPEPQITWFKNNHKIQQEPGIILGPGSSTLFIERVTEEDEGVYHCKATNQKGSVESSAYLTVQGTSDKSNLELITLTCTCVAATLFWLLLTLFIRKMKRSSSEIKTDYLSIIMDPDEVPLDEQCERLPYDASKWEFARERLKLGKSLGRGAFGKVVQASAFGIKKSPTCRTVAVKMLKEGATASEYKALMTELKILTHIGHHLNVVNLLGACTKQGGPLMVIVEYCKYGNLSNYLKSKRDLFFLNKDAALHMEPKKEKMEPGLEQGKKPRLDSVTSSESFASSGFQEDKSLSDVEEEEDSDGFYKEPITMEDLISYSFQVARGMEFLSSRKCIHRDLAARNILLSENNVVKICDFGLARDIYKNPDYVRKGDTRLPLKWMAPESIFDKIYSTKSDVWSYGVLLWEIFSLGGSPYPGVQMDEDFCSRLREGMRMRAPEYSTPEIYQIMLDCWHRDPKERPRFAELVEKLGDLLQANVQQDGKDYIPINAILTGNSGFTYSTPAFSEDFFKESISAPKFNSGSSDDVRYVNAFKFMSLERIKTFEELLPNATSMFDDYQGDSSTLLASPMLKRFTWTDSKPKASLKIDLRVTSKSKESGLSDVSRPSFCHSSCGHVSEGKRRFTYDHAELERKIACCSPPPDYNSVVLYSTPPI
# [13] = biological target: Death-associated protein kinase 3 (Homo sapiens, UniProt O43293); assay type: functional;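 further: measured as one member of a kinome-wide profiling panel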
# Sequence of Death-associated protein kinase 3 (O43293 whole entry): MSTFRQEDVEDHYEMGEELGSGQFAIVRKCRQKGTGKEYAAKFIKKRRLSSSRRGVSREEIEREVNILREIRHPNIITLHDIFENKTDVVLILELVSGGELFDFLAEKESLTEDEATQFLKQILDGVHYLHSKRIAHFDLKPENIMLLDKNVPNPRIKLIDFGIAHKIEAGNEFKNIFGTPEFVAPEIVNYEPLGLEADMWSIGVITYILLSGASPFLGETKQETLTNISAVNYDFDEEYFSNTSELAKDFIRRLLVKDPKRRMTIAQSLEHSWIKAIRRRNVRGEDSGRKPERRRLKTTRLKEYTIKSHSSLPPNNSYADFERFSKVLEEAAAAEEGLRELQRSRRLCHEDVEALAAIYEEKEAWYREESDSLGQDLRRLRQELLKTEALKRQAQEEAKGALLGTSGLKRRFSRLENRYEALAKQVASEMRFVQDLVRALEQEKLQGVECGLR
# [14] = biological target: Dual specificity tyrosine-phosphorylation-regulated kinase 1A (Homo sapiens, UniProt Q13627); assay type: functional;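 further: measured against DYRK1A as one member of a broad kinome profiling panel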
smiles,measurement,setting,value
O=C1S/C(=C\c2ccc(O)c([N+](=O)[O-])c2)C(=O)N1c1ccccc1Cl,CC50,Vero,> 40 µM (active)
same,IC50,[1],> 20 µM (inactive)
same,EC50,[2],> 53 µM (inactive)
same,IC50,[3],24.4 µM (active)
same,EC50,[4],> 120 µM (not active)
same,IC50,Genome polyprotein,40.6 µM (active)
Cc1ccc([C@@H]2CC=C(C(=O)O)[C@H](c3cccc(Cl)c3)N2S(=O)(=O)c2ccccc2C)cc1,IC50,CHO-K1,> 66.2 µM (inactive)
same,IC50,[5],0.601 µM (active)
same,IC50,[6],18.7 µM (inactive)
same,IC50,Orexin receptor type 2 [7],3.9 µM (active)
same,IC50,Orexin receptor type 2 [8],0.67 µM (active)
same,IC50,[9],4.6 µM (active)
Fc1ccc(Nc2ncnc(Nc3ccc4[nH]ncc4c3)n2)cc1,Ki,[10],0.126 µM (active)
same,Ki,Wee1-like protein kinase,> 3.16 µM (inactive)
CCS(=O)(=O)Nc1ccc2c(c1)C(=NO)c1ccccc1-2,Ki,Aurora kinase A,0.631 µM (active)
same,Ki,[11],3.16 µM (active)
same,Ki,Aurora kinase B,0.0316 µM (active)
O=c1sn(-c2ccc3c(c2)OCO3)c(=O)n1Cc1ccccc1,Ki,[12],2 µM (active)
same,Ki,[13],3.16 µM (active)
same,Ki,[14],1.26 µM (active)
